Values of other authors in patent US6225288A, “Gamma-ketoacid dipeptides as inhibitors of caspase-3” (Merk Frosst Canada & Co., priority 2000, dated 2001).
pKi: −log10 of the molar value.

Assays:
caspase-1 = target: T1, caspase-1 (Homo sapiens, UniProt P29466)
T1 sequence (P29466 120-297 limits assumed): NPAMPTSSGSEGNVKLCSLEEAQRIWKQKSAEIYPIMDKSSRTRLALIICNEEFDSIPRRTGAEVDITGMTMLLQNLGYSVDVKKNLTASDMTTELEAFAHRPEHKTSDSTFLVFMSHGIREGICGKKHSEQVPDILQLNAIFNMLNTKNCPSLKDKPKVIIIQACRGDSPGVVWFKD
T1 sequence (P29466 317-404 limits assumed): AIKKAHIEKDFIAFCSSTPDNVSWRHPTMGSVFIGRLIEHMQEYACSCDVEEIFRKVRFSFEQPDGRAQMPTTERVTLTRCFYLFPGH

caspase-3 = target: T2, caspase-3 (Homo sapiens, UniProt P42574)
T2 sequence (P42574 29-175 limits assumed): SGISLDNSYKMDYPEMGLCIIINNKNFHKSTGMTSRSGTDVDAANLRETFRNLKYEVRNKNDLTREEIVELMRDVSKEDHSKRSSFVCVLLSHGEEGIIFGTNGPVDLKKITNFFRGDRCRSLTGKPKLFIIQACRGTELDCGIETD
T2 sequence (P42574 176-277 limits assumed): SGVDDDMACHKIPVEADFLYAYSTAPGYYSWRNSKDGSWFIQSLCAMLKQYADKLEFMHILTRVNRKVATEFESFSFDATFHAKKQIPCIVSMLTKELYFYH

## Ac-YVAD-CHO
caspase-1
  pKi: > 9.00
caspase-3
  pKi: 4.92
